From article PMC5152921, “Evolutionary and Functional Diversification of the Vitamin D Receptor-Lithocholic Acid Partnership” (PLoS ONE, 2016)

Tests used:
Assay in all cases: Transient transactivation assay (XREM-Luc, HepG2)
Assay type in all cases: cell-based
Conditions in all cases: 100 μM LCA
Skate VDR = biological target: T1, Skate VDR (Leucoraja erinacea, UniProt A0A088GDQ7)
T1 sequence (A0A088GDQ7 1-434): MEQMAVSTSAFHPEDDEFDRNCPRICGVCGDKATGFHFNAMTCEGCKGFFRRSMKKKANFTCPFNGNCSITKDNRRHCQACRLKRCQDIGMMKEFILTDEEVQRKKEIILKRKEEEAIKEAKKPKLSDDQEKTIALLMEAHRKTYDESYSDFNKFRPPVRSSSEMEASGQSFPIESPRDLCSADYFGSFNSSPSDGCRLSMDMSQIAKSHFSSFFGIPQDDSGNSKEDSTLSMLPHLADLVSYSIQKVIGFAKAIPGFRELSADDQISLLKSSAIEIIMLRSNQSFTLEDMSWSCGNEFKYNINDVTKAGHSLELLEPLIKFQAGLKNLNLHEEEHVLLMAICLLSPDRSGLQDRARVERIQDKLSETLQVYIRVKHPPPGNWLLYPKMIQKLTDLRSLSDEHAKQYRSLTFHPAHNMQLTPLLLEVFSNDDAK
T1 sequence (P19793 1-462 partner): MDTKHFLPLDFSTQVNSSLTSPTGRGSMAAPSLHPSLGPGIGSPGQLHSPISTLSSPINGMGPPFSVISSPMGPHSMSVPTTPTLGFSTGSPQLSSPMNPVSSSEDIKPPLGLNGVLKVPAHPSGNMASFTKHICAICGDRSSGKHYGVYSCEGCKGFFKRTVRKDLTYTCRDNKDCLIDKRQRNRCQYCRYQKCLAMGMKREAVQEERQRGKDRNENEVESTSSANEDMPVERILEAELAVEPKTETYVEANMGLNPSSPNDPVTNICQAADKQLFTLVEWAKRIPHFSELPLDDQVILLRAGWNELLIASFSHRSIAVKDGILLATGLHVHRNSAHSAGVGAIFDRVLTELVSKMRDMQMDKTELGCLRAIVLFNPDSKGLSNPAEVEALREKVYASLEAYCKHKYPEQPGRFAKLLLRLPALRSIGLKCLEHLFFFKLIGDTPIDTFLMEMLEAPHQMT
Procedure: (§1) HepG2 cells (American Type Culture Collection #HB-8065) were cultured in T75 flasks with vented caps (Corning Life Sciences, Corning, NY) using Minimum Essential Medium (MEM) with phenol red supplemented with 10% fetal bovine serum, 1 mM sodium pyruvate, and 1X MEM non-essential amino acids. Cells were maintained following standard protocols in a 5% CO2 incubator set at 37°C, and split when 80–90% confluent.
(§2) For the transient transactivation assays, HepG2 cells were seeded in 96-well tissue culture plates at a density of 2.5x10^4 cells per well in complete phenol red-free MEM, and allowed to recover overnight. Transfections were performed the following day using Lipofectamine 2000 (Life Technologies, Grand Island, NY) as described previously. For functional comparisons, 89.7 ng/well of full-length pSG5-VDR was co-transfected with 19.2 ng/well human XREM-Luc reporter and 4.5 ng/well of pRL-CMV as an internal luciferase control. Coregulator studies included the addition of 18.3 ng/well of human coregulators (pCDNA-RXRWT, pCDNA-RXRAF2, pSG5-SRC1, pSG5-GRIP1 or pSG5-ACTR) where indicated. […] Controls include 120 nM 1,25D3 as a positive control, and ethanol as a vehicle control. Twenty-four hours post-exposure cells were tested for luciferase activity using the Dual-Glo Luciferase Assay System (Promega Corporation, Madison, WI) according to the manufacturer’s protocols. Luciferase data were first normalized to the pRL-CMV internal luciferase control. […] To calculate the impact of coregulators on VDR transactivation, VDR response in the presence of coregulators was normalized to VDR alone. All experiments were repeated 3 times and conducted as groups of 4 replicate wells. VDR response in the absence of coregulators was analyzed using a 1-way ANOVA followed by Dunnett’s multiple comparisons test. To examine the effects of different coregulators on VDR activation, data were analyzed using a 2-way ANOVA followed by Bonferroni’s multiple comparisons test in GraphPad Prism (GraphPad Inc, San Diego, CA).

Bichir VDR = biological target: T2, Bichir VDR (Polypterus senegalus, UniProt A0A088GJ14)
T2 sequence (A0A088GJ14 1-421): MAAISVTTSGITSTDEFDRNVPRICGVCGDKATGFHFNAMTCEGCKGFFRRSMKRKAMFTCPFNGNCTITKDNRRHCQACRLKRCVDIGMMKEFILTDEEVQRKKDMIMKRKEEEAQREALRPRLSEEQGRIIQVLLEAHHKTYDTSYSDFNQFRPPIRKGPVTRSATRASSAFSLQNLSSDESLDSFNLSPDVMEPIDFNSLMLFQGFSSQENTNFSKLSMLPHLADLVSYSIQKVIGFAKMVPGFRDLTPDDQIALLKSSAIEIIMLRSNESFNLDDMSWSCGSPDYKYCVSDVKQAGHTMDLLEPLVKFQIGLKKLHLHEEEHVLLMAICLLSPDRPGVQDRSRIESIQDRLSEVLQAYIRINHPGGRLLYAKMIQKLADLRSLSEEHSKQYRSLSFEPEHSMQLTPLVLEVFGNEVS
T2 sequence (P19793 1-462 partner): T1 sequence (P19793 1-462 partner)
Procedure: as §1, §2

Lamprey VDR = biological target: T3, Lamprey VDR (Petromyzon marinus, UniProt Q7ZZY9)
T3 sequence (Q7ZZY9 1-406): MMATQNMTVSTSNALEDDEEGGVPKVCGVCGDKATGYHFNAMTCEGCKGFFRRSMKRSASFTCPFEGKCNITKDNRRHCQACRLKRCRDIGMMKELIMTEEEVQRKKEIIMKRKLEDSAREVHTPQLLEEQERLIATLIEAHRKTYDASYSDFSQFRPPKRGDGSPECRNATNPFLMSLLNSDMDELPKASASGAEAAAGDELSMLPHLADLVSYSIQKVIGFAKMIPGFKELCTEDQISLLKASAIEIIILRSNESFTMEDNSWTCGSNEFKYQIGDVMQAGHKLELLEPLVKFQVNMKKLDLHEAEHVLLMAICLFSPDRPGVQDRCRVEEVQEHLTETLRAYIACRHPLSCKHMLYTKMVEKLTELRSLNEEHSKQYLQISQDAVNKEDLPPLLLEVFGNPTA
T3 sequence (P19793 1-462 partner): T1 sequence (P19793 1-462 partner)
Procedure: as §1, §2

[1] = co-transfected human RXRWT, vs VDR alone
[2] = any SRC/p160 co-activator, presence or absence of RXRWT

C[C@H](CCC(=O)O)[C@H]1CC[C@H]2[C@@H]3CC[C@@H]4C[C@H](O)CC[C@]4(C)[C@H]3CC[C@]12C [LCA, 5β-cholanic acid-3α-ol]
Effect of exogenous human RXRWT on VDR transactivation (Skate VDR; [1]): significantly enhanced transactivation | Effect of RXRWT+SRC1 or RXRWT+GRIP1 on VDR transactivation (Skate VDR; not significantly different from RXRWT individually): Enhanced VDR transactivation was also observed | Effect of SRC/p160 co-activators on VDR transactivation (Bichir VDR; [2]): No change in transactivation | Effect of exogenous human RXRWT on VDR transactivation (Bichir VDR; [1]): no effect | Effect of SRC/p160 co-activators on VDR transactivation (Lamprey VDR; [2]): No change in transactivation | Effect of exogenous human RXRWT on VDR transactivation (Lamprey VDR; [1]): no effect
